Data on one compound can be found in ChEMBL document CHEMBL5338769, “Discovery of Norisoboldine Analogue III11 as a Novel and Potent Aryl Hydrocarbon Receptor Agonist for the Treatment of Ulcerative Colitis” (J Med Chem, 2023).

The term half-life denotes the time needed for the level to fall by half in the phase considered. Read a high half-life as slow decline.

SMILES strings stand for the structures. Activity calls are given as the source filed them.

For series [1], the target named is T1, Aryl hydrocarbon receptor (Mus musculus, UniProt P30561).
T1 sequence (P30561 whole entry): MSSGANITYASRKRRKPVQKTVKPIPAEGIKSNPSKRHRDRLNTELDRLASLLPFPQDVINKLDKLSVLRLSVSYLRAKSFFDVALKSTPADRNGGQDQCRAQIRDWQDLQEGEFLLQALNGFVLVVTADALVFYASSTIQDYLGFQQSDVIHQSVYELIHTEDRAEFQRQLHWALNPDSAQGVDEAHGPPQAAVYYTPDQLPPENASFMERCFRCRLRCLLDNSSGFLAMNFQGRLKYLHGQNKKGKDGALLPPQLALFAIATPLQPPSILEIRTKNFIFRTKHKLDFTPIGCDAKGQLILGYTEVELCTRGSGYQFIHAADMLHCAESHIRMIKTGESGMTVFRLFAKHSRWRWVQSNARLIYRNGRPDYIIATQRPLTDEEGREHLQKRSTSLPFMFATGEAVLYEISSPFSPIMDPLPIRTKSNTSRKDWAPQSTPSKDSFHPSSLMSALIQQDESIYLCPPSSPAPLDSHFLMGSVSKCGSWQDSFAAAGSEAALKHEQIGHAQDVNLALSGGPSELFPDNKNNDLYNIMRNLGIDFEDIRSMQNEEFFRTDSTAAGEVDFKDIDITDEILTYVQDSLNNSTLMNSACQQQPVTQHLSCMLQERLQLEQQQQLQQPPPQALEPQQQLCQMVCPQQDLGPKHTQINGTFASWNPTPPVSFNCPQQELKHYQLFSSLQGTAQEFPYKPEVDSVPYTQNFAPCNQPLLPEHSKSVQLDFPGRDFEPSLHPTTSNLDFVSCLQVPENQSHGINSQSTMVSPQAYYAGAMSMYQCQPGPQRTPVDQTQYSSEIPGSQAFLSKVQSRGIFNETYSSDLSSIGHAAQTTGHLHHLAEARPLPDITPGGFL
The series can be described thus: Activation of AhR transcription in C57BL/6 mouse naive T cells assessed as increase in UGT1A1 mRNA expression at 1 to 3 uM by qRT-PCR analysis. Type of series: cell-based. The settings on record: t cell, dose 1-3 µM.

Series [2] relates to Mus musculus. Put plainly: Anti-colitis activity against DSS-induced ulcerative colitis C57BL/6 mouse model assessed as amelioration of epithelial change score by measuring erosion in colon at 10 to 20 mg/kg, po administered once a day for 10 days by H&E staining based histopathological analysis. The settings on record: dose 10-20 mg/kg, time 10.0 day. It is filed as functional, organism-based.

A short description of series [3]: Half-life in Sprague-Dawley rat at 3 mg/kg, iv measured upto 1440 min by LC-MS/MS analysis. Type of series: ADME, organism-based. The note with it: in vivo.
Series [4] has as its system EL4. Put plainly: Cytotoxicity against mouse EL4 cells assessed as reduction of cell vaibility at 10 uM incubated for 72 hrs by MTT assay. Type of series: functional, cell-based. On the technique in general: Tetrazolium assays rely on reduction of a dye to a coloured formazan, in cell work by metabolically active cells.
Series [5] concerns Mus musculus. Put plainly: Anti-colitis activity against DSS-induced ulcerative colitis C57BL/6 mouse model assessed as increase in Foxp3 mRNA level by measuring fold change at 10 mg/kg, po administered once a day for 10 days by qRT-PCR analysis. The note with it: time 10 day. It is filed as functional. On the technique in general: Real-time PCR tracks product formation cycle by cycle.

For series [6], the system named is Mus musculus. Put plainly: Anti-colitis activity in DSS-induced ulcerative colitis C57BL/6 mouse model assessed as increase in CD4+CD25+Foxp3+ Treg cell ratio in mesenteric lymph nodes at 20 mg/kg, po administered once a day for 10 days by flow cytometric analysis (reference value: 4.5 %). Type of series: functional. The settings on record: time 10 day. A general note: Flow cytometry measures light scatter and fluorescence of single cells or particles in a stream.

Series [7] has as its system Mus musculus. The series can be described thus: Anti-colitis activity in DSS-induced ulcerative colitis C57BL/6 mouse model assessed as CD4+CD25+Foxp3+ Treg cell percentage in spleen at 20 mg/kg, po administered once a day for 10 days by flow cytometric analysis (reference value: 3.3%). It is filed as functional. The settings on record: time 10 day.
Series [8] can be described thus: Unbound drug concentration in rat plasma at 21.67 ug/ml of total concentration measured after 12 hrs by ultrafiltration based HPLC analysis. The note with it: dose 21.67 µg/ml. Type of series: ADME, cell-free.

For the compound `COc1cc2c3c(c1)-c1ccc(O)cc1CC3NCC2` (stereo not drawn), the results for the Activity entry in series [1], in series [6] and in series [7] were “Active”, 8.5% and 4%, respectively. In addition, the outcome in series [2] was Active. This compound yielded a half-life in series [3] of 2.24 h. In addition, in series [4], the result was inactive. Besides, in series [5], the “fold change (FC)” value is 1.88. For the same compound, the “Cp(f)” value in series [8] is 3230 ng/mL.
